Literature values in US20120245028A1, “Methods for Use of Tetraalkyl Ammonium Halide Compositions as Post-emergence Higher Plant Herbicides” (priority 2011, published 2012).

Legend:
[1] = system: infected field apple trees; settings: infected field apple trees treated with 5% solution
[2] = system: small apple tree seedlings; settings: following fungus inoculation and a treatment with 5% solution

Question: Which results are given for `CCCCCCCCCC[N+](C)(C)CCCCCCCCCC.[Br-]` [DDAB, didecyl dimethyl ammonium bromide]?
Answer: damage caused by the treatments [1]: no obvious damage; effect upon the total number of growing buds [1]: no effect; phytotoxicity [2]: severe phytotoxicity
